The record followed here is the supplement of paper PMC10307832.

Test in all cases: relative viability (nuclei count vs DMSO), 5 days (fraction); higher = more cells survive
Compound in assay [1]: C[C@@H](Oc1cc(-c2cnn(C3CCNCC3)c2)cnc1N)c1c(Cl)ccc(F)c1Cl [Crizotinib] + Cc1nc(Nc2ncc(C(=O)Nc3c(C)cccc3Cl)s2)cc(N2CCN(CCO)CC2)n1 [Dasatinib] (partner 0.075 µM)
In a few lines:
(§1)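 Relative viability was taken as the ratio of nuclei in treated wells to nuclei in vehicle wells. Lung cancer cell lines in 1536-well plates received compounds by pin tool one day after seeding, either one drug alone or a fixed anchor-drug dose plus five library-drug doses (not always all listed) in √10 steps. Nuclei were counted on 4× images after 5 days of treatment, and values are medians of duplicate plates.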

Compound in assay [2]: CC(C)C[C@H](NC(=O)[C@H](CCc1ccccc1)NC(=O)CN1CCOCC1)C(=O)N[C@@H](Cc1ccccc1)C(=O)N[C@@H](CC(C)C)C(=O)[C@@]1(C)CO1 [Carfilzomib] + CCNC(=O)c1noc(-c2cc(C(C)C)c(O)cc2O)c1-c1ccc(CN2CCOCC2)cc1 [Luminespib] (partner 0.01 µM)
A digest of the protocol:
as §1

Compound in assay [3]: O=C(c1cc(Cc2n[nH]c(=O)c3ccccc23)ccc1F)N1CCN(C(=O)C2CC2)CC1 [Olaparib] + C[C@@H](Oc1cc(-c2cnn(C3CCNCC3)c2)cnc1N)c1c(Cl)ccc(F)c1Cl [Crizotinib] (partner 1 µM)
In a few lines:
as §1

Compound in assay [4]: O=C(c1cc(Cc2n[nH]c(=O)c3ccccc23)ccc1F)N1CCN(C(=O)C2CC2)CC1 [Olaparib] + Cc1cc(Nc2cc(N3CCN(C)CC3)nc(Sc3ccc(NC(=O)C4CC4)cc3)n2)n[nH]1 [Tozasertib] (partner 0.1 µM)
A digest of the protocol: as §1

For the cell line NCI-H1975, the relative viability in assay [1] (first compound 0.01 µM) worked out at 0.347; in assay [1] (first compound 0.03162 µM), 0.381; in assay [1] (first compound 0.1 µM) it was 0.349; in assay [1] (first compound 0.3162 µM), 0.387; in assay [1] (first compound 1 µM), 0.43; in assay [2] (first compound 0.001 µM), 0.2. Besides, the relative viability turned out to be 0.185 in assay [2] (first compound 0.003162 µM); 0.261 in assay [2] (first compound 0.01 µM); 0.167 in assay [2] (first compound 0.03162 µM); 0.16 in assay [2] (first compound 0.1 µM); 1.04 in assay [3] (first compound 0.08 µM); 0.906 in assay [3] (first compound 0.253 µM). For the same cell line, the relative viability came to 0.945 in assay [3] (first compound 2.53 µM); 0.916 in assay [3] (first compound 8 µM); 0.821 in assay [4] (first compound 0.08 µM); 0.715 in assay [4] (first compound 0.253 µM); 0.85 in assay [4] (first compound 2.53 µM); 0.699 in assay [4] (first compound 8 µM).

NCI-H1993: the relative viability came to 0.483 in assay [1] (first compound 0.03162 µM); 0.488 in assay [1] (first compound 0.1 µM); 0.49 in assay [1] (first compound 0.3162 µM); 0.511 in assay [1] (first compound 1 µM); 0.9 in assay [2] (first compound 0.001 µM); 0.932 in assay [2] (first compound 0.003162 µM). Further, the relative viability in assay [2] (first compound 0.01 µM) was 0.983; in assay [2] (first compound 0.03162 µM) it was 0.71; in assay [2] (first compound 0.1 µM), 0.462; in assay [3] (first compound 0.08 µM) it was 0.967; in assay [3] (first compound 0.253 µM), 0.954; in assay [3] (first compound 2.53 µM), 0.987. The relative viability was 1.07 in assay [3] (first compound 8 µM); 0.546 in assay [4] (first compound 0.08 µM); 0.537 in assay [4] (first compound 0.253 µM); 0.557 in assay [4] (first compound 2.53 µM); 0.521 in assay [4] (first compound 8 µM).

For the cell line NCI-H2009, the relative viability turned out to be 0.265 in assay [1] (first compound 0.01 µM); 0.296 in assay [1] (first compound 0.03162 µM); 0.253 in assay [1] (first compound 0.1 µM); 0.249 in assay [1] (first compound 0.3162 µM); 0.275 in assay [1] (first compound 1 µM); 1.1 in assay [2] (first compound 0.001 µM). The relative viability is 1.06 in assay [2] (first compound 0.003162 µM); 1.03 in assay [2] (first compound 0.01 µM); 1.08 in assay [2] (first compound 0.03162 µM); 0.121 in assay [2] (first compound 0.1 µM); 1.19 in assay [3] (first compound 0.08 µM); 0.999 in assay [3] (first compound 0.253 µM). In addition, the relative viability in assay [3] (first compound 2.53 µM) worked out at 1.06; in assay [3] (first compound 8 µM) it was 1.01; in assay [4] (first compound 0.08 µM) it was 0.81; in assay [4] (first compound 0.253 µM), 0.678; in assay [4] (first compound 2.53 µM) it was 0.761; in assay [4] (first compound 8 µM), 0.648.

As to NCI-H2023, the relative viability in assay [1] (first compound 0.01 µM) was found to be 0.532; in assay [1] (first compound 0.03162 µM), 0.537; in assay [1] (first compound 0.1 µM), 0.449; in assay [1] (first compound 0.3162 µM), 0.258; in assay [1] (first compound 1 µM), 0.389; in assay [2] (first compound 0.001 µM), 0.81. Moreover, the relative viability in assay [2] (first compound 0.003162 µM) is 0.795; in assay [2] (first compound 0.01 µM), 0.626; in assay [2] (first compound 0.03162 µM) it was 0.362; in assay [2] (first compound 0.1 µM), 0.0768; in assay [3] (first compound 0.08 µM) it was 0.789; in assay [3] (first compound 0.253 µM), 0.661. In addition, the relative viability in assay [3] (first compound 2.53 µM) was found to be 0.658; in assay [3] (first compound 8 µM) it was 0.574; in assay [4] (first compound 0.08 µM), 0.357; in assay [4] (first compound 0.253 µM) it was 0.298; in assay [4] (first compound 2.53 µM), 0.32; in assay [4] (first compound 8 µM), 0.238.

Regarding NCI-H2085, the relative viability in assay [1] (first compound 0.01 µM) was found to be 0.209; in assay [1] (first compound 0.03162 µM), 0.232; in assay [1] (first compound 0.1 µM), 0.228; in assay [1] (first compound 0.3162 µM) it was 0.282; in assay [1] (first compound 1 µM), 0.28; in assay [2] (first compound 0.001 µM), 0.505. Further, the relative viability is 0.472 in assay [2] (first compound 0.003162 µM); 0.359 in assay [2] (first compound 0.01 µM); 0.205 in assay [2] (first compound 0.03162 µM); 0.189 in assay [2] (first compound 0.1 µM); 0.911 in assay [3] (first compound 0.08 µM); 0.657 in assay [3] (first compound 0.253 µM). Also, the relative viability in assay [3] (first compound 2.53 µM) amounted to 0.74; in assay [3] (first compound 8 µM) it was 0.77; in assay [4] (first compound 0.08 µM), 0.943; in assay [4] (first compound 0.253 µM) it was 0.756; in assay [4] (first compound 2.53 µM), 0.847; in assay [4] (first compound 8 µM) it was 0.753.

For NCI-H2087, the relative viability was found to be 0.696 in assay [1] (first compound 0.01 µM); 0.861 in assay [1] (first compound 0.03162 µM); 0.797 in assay [1] (first compound 0.1 µM); 0.803 in assay [1] (first compound 1 µM); 0.212 in assay [2] (first compound 0.001 µM); 0.146 in assay [2] (first compound 0.003162 µM). The relative viability was determined as 0.215 in assay [2] (first compound 0.01 µM); 0.0619 in assay [2] (first compound 0.03162 µM); 0.0448 in assay [2] (first compound 0.1 µM); 1.02 in assay [3] (first compound 0.08 µM); 0.738 in assay [3] (first compound 0.253 µM); 0.78 in assay [3] (first compound 2.53 µM). Also, the relative viability was 0.688 in assay [3] (first compound 8 µM); 0.31 in assay [4] (first compound 0.08 µM); 0.204 in assay [4] (first compound 0.253 µM); 0.324 in assay [4] (first compound 2.53 µM); 0.18 in assay [4] (first compound 8 µM).

For the cell line NCI-H2126, the relative viability in assay [1] (first compound 0.01 µM) turned out to be 0.484; in assay [1] (first compound 0.03162 µM), 0.646; in assay [1] (first compound 0.1 µM), 0.569; in assay [1] (first compound 0.3162 µM), 0.557; in assay [1] (first compound 1 µM) it was 0.545; in assay [2] (first compound 0.001 µM), 0.875. Further, the relative viability amounted to 0.999 in assay [2] (first compound 0.003162 µM); 0.938 in assay [2] (first compound 0.01 µM); 0.744 in assay [2] (first compound 0.03162 µM); 0.465 in assay [2] (first compound 0.1 µM); 1.12 in assay [3] (first compound 0.08 µM); 0.967 in assay [3] (first compound 0.253 µM). Also, the relative viability amounted to 0.957 in assay [3] (first compound 2.53 µM); 0.969 in assay [3] (first compound 8 µM); 0.915 in assay [4] (first compound 0.08 µM); 0.794 in assay [4] (first compound 0.253 µM); 0.869 in assay [4] (first compound 2.53 µM); 0.83 in assay [4] (first compound 8 µM).

For the cell line NCI-H2170, the relative viability stood at 0.642 in assay [1] (first compound 0.01 µM); 0.506 in assay [1] (first compound 0.03162 µM); 0.566 in assay [1] (first compound 0.1 µM); 0.481 in assay [1] (first compound 0.3162 µM); 0.624 in assay [1] (first compound 1 µM); 0.635 in assay [2] (first compound 0.001 µM). Moreover, the relative viability in assay [2] (first compound 0.003162 µM) is 0.666; in assay [2] (first compound 0.01 µM), 0.612; in assay [2] (first compound 0.03162 µM), 0.579; in assay [2] (first compound 0.1 µM) it was 0.311; in assay [3] (first compound 0.08 µM), 1.23; in assay [3] (first compound 0.253 µM) it was 1.15. In addition, the relative viability was determined as 1.4 in assay [3] (first compound 2.53 µM); 1.11 in assay [3] (first compound 8 µM); 0.81 in assay [4] (first compound 0.08 µM); 0.806 in assay [4] (first compound 0.253 µM); 0.705 in assay [4] (first compound 2.53 µM); 0.629 in assay [4] (first compound 8 µM).
